In article PMC8404199, “Structure–Activity Relationships of Triple-Action Platinum(IV) Prodrugs with Albumin-Binding Properties and Immunomodulating Ligands” (Journal of Medicinal Chemistry, 2021):
Read-outs that look alike come from different tables or passages of the source.

Legend:
[1] = tested on: CT26 colon cancer allografts; assay: Anticancer activity against CT26 allografts in Balb/c mice; format: in vivo; conditions: iv, equimolar to 9 mg/kg oxaliplatin; for anticancer activity against CT26 tumors (in words): twice a week for 2 weeks
Protocol: Every day, the animals were monitored for body weight and the enhanced stress level, and the tumor size was measured using a caliper according to the formula length × width^2/2.

[2] = Organ distribution of platinum in SKOV3-bearing SCID mice; conditions: 24 h after single iv dose equimolar to 9 mg/kg oxaliplatin
Protocol: For tissue digestion, approx. 25–50 mg of tissue was weighed into perfluoralkoxy tubes, and 2 mL of HNO3 and 100 μL H2O2 (30%, Suprapur, Merck, Darmstadt, Germany) were added. The solutions were placed on a hot plate and heated up for 7 h using a temperature program with a maximum of 200 °C. The liquids were transferred to 15 mL tubes with the remaining solution being removed by washing twice with 4 mL of ultrapure water.
Platinum concentrations were measured using an Agilent 7800 ICP-QMS instrument (Agilent Technologies, Tokyo, Japan) equipped with an Agilent SPS 4 autosampler (Agilent Technologies, Tokyo, Japan) and a MicroMist nebulizer at a sample uptake rate of approx. 0.2 mL/min. […] All of the measured samples were blank corrected (for the cell culture data, wells containing no cells were used). Elemental standard solutions were purchased from Labkings (Hilversum, The Netherlands). The instrument was tuned on a daily basis.
SKOV3 cells (1.5 × 10^6 cells in 50 μL serum-free medium) were injected subcutaneously into the right flank of male SCID mice. […] Then, the animals were sacrificed by cervical dislocation, and tumors and organs were collected for the measurement with ICP–MS. For plasma isolation, blood was collected in ethylenediaminetetraacetic acid (EDTA)-coated tubes and centrifuged for 10 min at 900g at 4 °C. Plasma was transferred to a new tube and centrifuged once more to remove residual red blood cells.

[3] = tested on: human HCT116 colon cancer cells; assay: MTT cytotoxicity assay in HCT116 cells; format: cell-based
Protocol: (§1) Cells were additionally incubated with 5-fold equimolar concentrations of ascorbic acid to increase the reduction rate of the compounds. Cell viability was measured by the MTT-based vitality assay (EZ4U; Biomedica, Vienna, Austria), following the manufacturer’s recommendations.

[4] = tested on: human embryonic kidney cells (HEK293); assay: MTT cytotoxicity assay in non-malignant HEK293 cells; format: cell-based; conditions: 72 h
Protocol: (§2) The cells were seeded at 3500–6000 cells/well in 96-well plates depending on the proliferation rate of the respective cell line and allowed to recover for 24 h. Subsequently, the cells were treated at indicated concentrations for 48 or 72 h. Cells were additionally incubated with 5-fold equimolar concentrations of ascorbic acid to increase the reduction rate of the compounds. Cell viability was measured by the MTT-based vitality assay (EZ4U; Biomedica, Vienna, Austria), following the manufacturer’s recommendations.

SKOV3 cancer cells = assay: Long-term cytotoxicity assay (crystal violet) in SKOV3 cells; format: cell-based, human; conditions: 168 h, crystal violet stain, mean ± SD
Protocol: SKOV3 cells were seeded in duplicates at 5000 cells/well in 24-well plates and allowed to recover for 24 h. Subsequently, the cells were treated at the indicated concentrations for 168 h. Cells were fixed with ice-cold methanol (20 min at 4 °C), washed with PBS, and stained with crystal violet. Subsequently, colony formation was inspected, and the fluorescence signal was detected using Typhoon Trio imager (GE Healthcare, Little Chalfont, UK) at 610/30 nm BP and analyzed by ImageJ software.

[5] = tested on: VM7 melanoma cancer cells; assay: MTT cytotoxicity assay in VM7 cells; format: cell-based, human; conditions: 72 h
Protocol: as §2

human SKOV3 cancer cells = assay: MTT cytotoxicity assay in SKOV3 cells; format: cell-based; conditions: 72 h incubation
Protocol: as §2

[6] = tested on: human hepatic cell line (WRL68); assay: MTT cytotoxicity assay in non-malignant WRL68 cells; format: cell-based; conditions: 72 h
Protocol: as §2

[7] = tested on: murine CT26 colon cancer cells; assay: MTT cytotoxicity assay in CT26 cells; format: cell-based
Protocol: as §1

albumin = biological target: T1, albumin (Bos taurus, UniProt P02769); assay: SEC-ICP-MS albumin binding and serum stability in fetal calf serum; format: in vitro ADME; conditions: FCS + 150 mM phosphate buffer pH 7.4, 37 °C
T1 construct: FCS was purchased from Sigma-Aldrich and buffered with 150 mM phosphate buffer (pH 7.4); tissue Sigma-Aldrich; host or cells: fetal calf serum
Protocol: FCS was purchased from Sigma-Aldrich and buffered with 150 mM phosphate buffer (pH 7.4) to guarantee a stable pH. The maleimide-bearing platinum(IV) complexes were dissolved in 10% DMF in 150 mM phosphate buffer (pH 7.4) to 1 mM and diluted 1:10 in serum to obtain a final concentration of 100 μM. The samples were then incubated in the autosampler at 37 °C for 24 h and analyzed every 1 h. Between each sample, a pure water blank was measured. For SEC–ICP–MS measurements, an Agilent 1260 Infinity system coupled to an Agilent 7800 ICP–MS equipped with a dynamic reaction cell was used. Oxygen (purity 5.5, Messer Austria GmbH, Gumpoldskirchen, Austria) was used as reaction gas.

[8] = UHPLC reduction experiments with L-ascorbic acid; format: physicochemical; conditions: 1 mM complex, 10-fold excess AA, phosphate buffer pH 7.4, 1% DMF, 20 °C
Protocol: The platinum(IV)–succinimide complexes were dissolved in 2% DMF in phosphate buffer (500 mM, pH 7.4) to a final concentration of 2 mM. The solutions were then mixed 1:1 with a 20 mM stock of L-ascorbic acid in phosphate buffer (500 mM, pH 7.4) to obtain final concentrations of 1 mM complex, 10 mM L-ascorbic acid, and 1% DMF. The samples were incubated at 20 °C and measured on a Dionex UltiMate 3000 RS UPLC system with a Waters Acquity UPLC BEH C18 column (3 × 50 mm, pore size 1.7 μm) and absorption detection at 220 nm. Data points were taken at t = 0 and every 30 min for 6 h.

[9] = log D7.4 determination by shake flask method and ICP-MS; format: physicochemical; conditions: n-octanol/phosphate buffer pH 7.4, Pt by ICP-MS
Protocol: 50 mM stock solutions of the succinimide complexes in DMF were diluted in phosphate buffer (20 mM, pH 7.4, pre-saturated with n-octanol) to a final concentration of 50 μM drug and 0.1% DMF. The platinum content of these aqueous solutions was measured by ICP–MS (see above). The solutions were mixed 1:1 with n-octanol and shaken on a 360° rotatable rack for 3 h. The solutions were centrifuged for 5 min (860g, RT), the aqueous layers were carefully removed, and their Pt content was measured by ICP–MS. Experiments were performed and measured in duplicates, and averages were used for further calculations. log D7.4 values were calculated by the following equation [drawing 1]

SKOV3 cell lysates = assay: Reduction and 1-MDT release in SKOV3 lysates; format: in vitro ADME, human; conditions: 100 μM, 37 °C
Protocol: SKOV3 cells were grown in four T225 […] cell culture flasks to reach a high cell number. On the day of cell lysate isolation, cells were washed with PBS, scraped from the surface, and centrifuged. Each cell pellet was lysed in ∼160 μL lysis buffer (15 mM NaCl 0.5% Triton X, ultrapure) and incubated on ice for 1 h. The samples were then centrifuged for 15 min at 14,000 rpm (4 °C), and the cleared lysate was pooled and kept at −80 °C until analysis. Cell lysates were treated with 2 mM stock solutions of respective complexes in 4% DMF and phosphate buffer (100 mM, pH 7.4) to obtain a final compound concentration of 100 μM and incubated at 37 °C. After 0, 4, 24, and 72 h, three volume equivalents of cold MeOH were added to sample aliquots. Samples were stored at 4 °C for 10 min and centrifuged (15,080g, 4 °C, 10 min). LC–MS analysis of the supernatant was performed on an Agilent 1260 Infinity system using a Waters Atlantis T3 column (150 mm × 4.6 mm) and absorption detection at 230 nm, coupled to a Bruker amaZon SL ESI-IT mass spectrometer. Milli-Q water, containing 0.1% formic acid, and acetonitrile, containing 0.1% formic acid, were used as eluents. A gradient of 1–99% acetonitrile in 20 min was used.

[10] = 48 h incubation, with 5 equiv AA, read-out: HCT116 IC50 values +AA, mean ± SD
[11] = 48 h incubation, without AA, read-out: HCT116 IC50 values, mean ± SD
[12] = 72 h incubation, with 5 eq. AA, read-out: HCT116 IC50 values + 5 eq. AA, mean
[13] = 72 h incubation, without AA, read-out: HCT116 IC50 values, mean
[14] = with 5 eq. AA, read-out: SKOV3 IC50 values + 5 eq. AA, mean
[15] = without AA, read-out: SKOV3 IC50 values, mean
[16] = 48 h incubation, with 5 equiv AA, read-out: CT26 IC50 values +AA, mean ± SD
[17] = 48 h incubation, without AA, read-out: CT26 IC50 values, mean ± SD
[18] = 72 h incubation, with 5 eq. AA, read-out: CT26 IC50 values + 5 eq. AA, mean
[19] = 72 h incubation, without AA, read-out: CT26 IC50 values, mean

T1 sequence (P02769 25-607): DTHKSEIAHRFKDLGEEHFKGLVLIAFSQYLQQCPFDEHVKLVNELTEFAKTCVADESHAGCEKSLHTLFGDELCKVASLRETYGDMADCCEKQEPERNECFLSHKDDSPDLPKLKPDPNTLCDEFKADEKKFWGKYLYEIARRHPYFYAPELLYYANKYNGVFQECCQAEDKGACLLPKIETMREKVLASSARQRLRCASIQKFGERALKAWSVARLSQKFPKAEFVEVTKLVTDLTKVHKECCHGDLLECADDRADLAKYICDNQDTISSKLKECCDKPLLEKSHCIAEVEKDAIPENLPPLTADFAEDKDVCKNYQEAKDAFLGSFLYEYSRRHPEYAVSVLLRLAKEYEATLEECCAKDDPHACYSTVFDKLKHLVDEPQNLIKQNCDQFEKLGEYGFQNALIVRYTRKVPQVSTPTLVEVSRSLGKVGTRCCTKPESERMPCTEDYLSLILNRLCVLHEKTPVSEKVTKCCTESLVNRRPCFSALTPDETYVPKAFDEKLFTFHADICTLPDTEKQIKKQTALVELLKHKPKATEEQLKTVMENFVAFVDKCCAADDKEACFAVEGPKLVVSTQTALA

Cn1cc(CC([NH3+])C(=O)[O][Pt]23([O]C(=O)CCCCCN4C(=O)C=CC4=O)([NH]C4CCCCC4[NH]2)[O]C(=O)C(=O)[O]3)c2ccccc21.O=C([O-])C(F)(F)F [MalEs/IdoEs, (OC-6-44)-[(R)-2-Ammonio-3-(1-methyl-1H-indol-3-yl)propanoato][(1R,2R)-1,2-yclohexanediamino][6-(2,5-dioxo-2,5-dihydro-1H-pyrrol-1-yl)hexanoato]oxalatoplatinum(IV) Trifluoroacetate]
anticancer activity against CT26 tumors (in words) [1]: inactive
platinum levels in blood plasma [2]: 3.7 mg/kg

Cn1cc(C[C@@H](NC(=O)[O][Pt]2([O]C(=O)NCCCCCN3C(=O)C=CC3=O)[O]C(=O)C(=O)[O]2)C(=O)O)c2ccccc21.N[C@@H]1CCCC[C@H]1N [MalCa/IdoCa, (OC-6-24)-[(R)-(1-Carboxy-2-(1-methyl-1H-indol-3-yl)ethyl)carbamato][(1R,2R)-1,2-cyclohexanediamino][5-(2,5-dioxo-2,5-dihydro-1H-pyrrol-1-yl)pentylcarbamato]oxalatoplatinum(IV)]
activity directly compared to oxaliplatin: tumor growth and overall survival [1]: superior to oxaliplatin
anticancer activity against CT26 tumors (in words) [1]: significant anticancer activity
platinum levels in blood plasma [2]: 6.4 mg/kg
Platinum ratio tumor:kidney ([2]; ratio of mean platinum levels): 0.5
Platinum ratio tumor:liver ([2]; ratio of mean platinum levels): 0.5

CC(=O)[O][Pt]1([O]C(=O)NCCCCCN2C(=O)CCC2=O)[O]C(=O)C(=O)[O]1.N[C@@H]1CCCC[C@H]1N [SucCa/OAc, (OC-6-34)-Acetato[(1R,2R)-1,2-cyclohexanediamine]oxalato[(5-(2,5-dioxopyrrolidin-1-yl)pentyl)carbamato]platinum(IV)]
ratio (IC50 without AA / with AA), HCT116 ([3]; 48 h): ≥2.9
IC50 [3, 10]: 34 ± 1.58 µM
IC50 [3, 11]: > 100 µM
ratio (IC50 without AA / with AA), HCT116 ([3]; 72 h): 1.93
IC50 [3, 12]: 21.8 µM
IC50 [3, 13]: 42 µM
IC50 [4]: 50.8 µM
IC50 (SKOV3 cancer cells): 29.7 ± 0.3 µM
IC50 [5]: > 100 µM
IC50 (human SKOV3 cancer cells; [14]): > 100 µM
IC50 (human SKOV3 cancer cells; [15]): > 100 µM
IC50 [6]: > 100 µM
ratio (IC50 without AA / with AA), CT26 ([7]; 48 h): 2.67
IC50 [7, 16]: 28.2 ± 1.81 µM
IC50 [7, 17]: 75.21 ± 0.11 µM
ratio (IC50 without AA / with AA), CT26 ([7]; 72 h): 1.37
IC50 [7, 18]: 40.4 µM
IC50 [7, 19]: 55.2 µM

Cn1cc(CC(NC(=O)[O][Pt]23([O]C(=O)NCCCCCN4C(=O)CCC4=O)([NH]C4CCCCC4[NH]2)[O]C(=O)C(=O)[O]3)C(=O)O)c2ccccc21 [SucCa/IdoCa, (OC-6-24)-[(R)-(1-Carboxy-2-(1-methyl-1H-indol-3-yl)ethyl)carbamato][(1R,2R)-1,2-cyclohexanediamino][(5-(2,5-dioxopyrrolidin-1-yl)pentyl)carbamato]oxalatoplatinum(IV)]
albumin binding in serum (in words) (albumin): significant binding to albumin (tR ~4 min) could be observed for any of the compounds
complex intact after 6 h [8]: 90%
log D7.4 [9]: –1.49
ratio (IC50 without AA / with AA), HCT116 ([3]; 48 h): ≥2.3
IC50 [3, 10]: 43.3 ± 2.1 µM
IC50 [3, 11]: > 100 µM
ratio (IC50 without AA / with AA), HCT116 ([3]; 72 h): ≥ 4
IC50 [3, 12]: 24.7 µM
IC50 [4]: 81.2 µM
IC50 (SKOV3 cancer cells): 54.6 ± 14.1 µM
IC50 [5]: > 100 µM
still present as platinum(IV) species after 72 h (SKOV3 cell lysates): ~50%
IC50 (human SKOV3 cancer cells; [14]): > 100 µM
IC50 (human SKOV3 cancer cells; [15]): > 100 µM
IC50 [6]: > 100 µM
ratio (IC50 without AA / with AA), CT26 ([7]; 48 h): ≥2.6
IC50 [7, 16]: 38.8 ± 3.84 µM
IC50 [7, 17]: > 100 µM
ratio (IC50 without AA / with AA), CT26 ([7]; 72 h): 1.89
IC50 [7, 18]: 43.6 µM
IC50 [7, 19]: 82.5 µM

CC(=O)[O][Pt]1([O]C(C)=O)[O]C(=O)C(=O)[O]1.N[C@@H]1CCCC[C@H]1N [OAc/OAc, reference compound]
IC50 [3, 10]: 20.1 ± 1.57 µM
IC50 [3, 11]: 26.6 ± 2.41 µM
IC50 [3, 12]: 11.5 µM
IC50 [3, 13]: 14.3 µM
IC50 [4]: 12.2 µM
IC50 [5]: 43.5 µM
IC50 [6]: 33.6 µM
IC50 [7, 16]: 22.6 ± 0.16 µM
IC50 [7, 17]: 25.7 ± 1.4 µM
IC50 [7, 18]: 33.5 µM
IC50 [7, 19]: 42.3 µM
